Laboratory results published in PubChem BioAssay AID248 (DTP/NCI, 2004).
Toxic doses and inconclusive results are not listed. Rule as the data show it: active = T/C of 150% or more; inactive = T/C below 125%.

Tested on: L1210 leukemia ip in BDF1 mice, survival T/C
Experiment: NCI In Vivo Anticancer Drug Screen. Data for tumor model L1210 Leukemia (intraperitoneal) in B6D2F1 (BDF1) mice
Settings: endpoint: mean survival time, higher = longer survival
In short: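 Antitumor effect is assessed in tumor-bearing animals. Survival in the compound arm is compared with a vehicle-dosed control arm and expressed as their quotient.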

[1] = dose: 100.0 mg/kg/injection, schedule: Q01DX009 (ip), vehicle: Klucel (hydroxypropylcellulose) (HPC)
[2] = dose: 200.0 mg/kg/injection, schedule: Q01DX009 (ip), vehicle: Klucel (hydroxypropylcellulose) (HPC)
[3] = dose: 400.0 mg/kg/injection, schedule: Q01DX009 (ip), vehicle: Klucel (hydroxypropylcellulose) (HPC)
[4] = dose: 50.0 mg/kg/injection, schedule: Q01DX009 (ip), vehicle: saline with Tween-80
[5] = dose: 100.0 mg/kg/injection, schedule: Q01DX009 (ip), vehicle: saline with Tween-80
[6] = dose: 200.0 mg/kg/injection, schedule: Q01DX009 (ip), vehicle: saline with Tween-80
[7] = dose: 100.0 mg/kg/injection, schedule: Q04DX003 (ip), vehicle: Klucel (hydroxypropylcellulose) (HPC)
[8] = dose: 200.0 mg/kg/injection, schedule: Q04DX003 (ip), vehicle: Klucel (hydroxypropylcellulose) (HPC)
[9] = dose: 400.0 mg/kg/injection, schedule: Q04DX003 (ip), vehicle: Klucel (hydroxypropylcellulose) (HPC)
[10] = dose: 100.0 mg/kg/injection, schedule: Q01DX001 (ip), vehicle: Klucel (hydroxypropylcellulose) (HPC)
[11] = dose: 200.0 mg/kg/injection, schedule: Q01DX001 (ip), vehicle: Klucel (hydroxypropylcellulose) (HPC)
[12] = dose: 100.0 mg/kg/injection, schedule: Q01DX001 (ip), vehicle: saline
[13] = dose: 400.0 mg/kg/injection, schedule: Q01DX001 (ip), vehicle: saline
[14] = dose: 100.0 mg/kg/injection, schedule: Q04DX003 (ip), vehicle: saline
[15] = dose: 25.0 mg/kg/injection, schedule: Q01DX009 (ip), vehicle: saline
[16] = dose: 25.0 mg/kg/injection, schedule: Q04DX002 (ip), vehicle: Klucel (hydroxypropylcellulose) (HPC)
[17] = dose: 50.0 mg/kg/injection, schedule: Q04DX002 (ip), vehicle: Klucel (hydroxypropylcellulose) (HPC)
[18] = dose: 100.0 mg/kg/injection, schedule: Q04DX002 (ip), vehicle: Klucel (hydroxypropylcellulose) (HPC)
[19] = dose: 200.0 mg/kg/injection, schedule: Q01DX001 (ip), vehicle: saline
[20] = dose: 200.0 mg/kg/injection, schedule: Q04DX002 (ip), vehicle: Klucel (hydroxypropylcellulose) (HPC)
[21] = dose: 400.0 mg/kg/injection, schedule: Q04DX002 (ip), vehicle: Klucel (hydroxypropylcellulose) (HPC)

Measured: T/C

O=C(O)/C(=C\c1ccccc1[N+](=O)[O-])c1cccc(Cl)c1
inactive: [1] 90 % of control | [2] 95 % of control

COc1ccc(OC)c(NC(=O)Nc2ccc(C(=O)O)cc2)c1
inactive: [1] 109 % of control | [2] 96 % of control | [3] 96 % of control

COc1ccc(C)cc1NC(=O)NNS(=O)(=O)c1ccc(C)cc1
inactive: [4] 93 % of control | [5] 93 % of control | [6] 93 % of control

CS(=O)c1ccc([N+](=O)[O-])cc1 (stereo not given)
inactive: [7] 98 % of control | [8] 104 % of control | [9] 105 % of control

O=C1C=C(N2CCOCC2)c2cccc3cccc1c23
inactive: dose: 50.0 mg/kg/injection, schedule: Q01DX001 (ip), vehicle: Klucel (hydroxypropylcellulose) (HPC) 106 % of control | [10] 104 % of control | [1] 94 % of control | [11] 98 % of control | [2] 96 % of control

CCOC(=O)C(O)(O)C(C)C
inactive: [12] 113 % of control | [13] 113 % of control

OC1C=NC=N1 (stereo not given)
inactive: [14] 92 % of control | dose: 200.0 mg/kg/injection, schedule: Q04DX003 (ip), vehicle: saline 109 % of control | dose: 400.0 mg/kg/injection, schedule: Q04DX003 (ip), vehicle: saline 95 % of control

CCCCCCCCNC12CC3CC(CC(C3)C1)C2
inactive: dose: 3.12 mg/kg/injection, schedule: Q01DX009 (ip), vehicle: saline 99 % of control | dose: 6.25 mg/kg/injection, schedule: Q01DX009 (ip), vehicle: saline 89 % of control | dose: 12.5 mg/kg/injection, schedule: Q01DX009 (ip), vehicle: saline 87 % of control | dose: 12.5 mg/kg/injection, schedule: Q04DX003 (ip), vehicle: saline 110 % of control | [15] 92 % of control | dose: 25.0 mg/kg/injection, schedule: Q04DX003 (ip), vehicle: saline 109 % of control

c1ccc([P+](Cc2cccc(C[P+](c3ccccc3)(c3ccccc3)c3ccccc3)c2)(c2ccccc2)c2ccccc2)cc1
inactive: dose: 1.2 mg/kg/injection, schedule: Q01DX001 (ip), vehicle: acetone 107 % of control | dose: 2.5 mg/kg/injection, schedule: Q01DX001 (ip), vehicle: acetone 99 % of control

COc1cc2c(cc1OC)N(C(C)=O)Cc1cccn1C2
inactive: dose: 12.5 mg/kg/injection, schedule: Q04DX002 (ip), vehicle: Klucel (hydroxypropylcellulose) (HPC) 94 % of control | [16] 94 % of control | [17] 94 % of control

Nc1ccc(-c2ccc(N)cc2I)c(I)c1
inactive: dose: 25.6 mg/kg/injection, schedule: Q04DX002 (ip), vehicle: saline with Tween-80 100 % of control | dose: 64.0 mg/kg/injection, schedule: Q04DX002 (ip), vehicle: saline with Tween-80 95 % of control | dose: 160.0 mg/kg/injection, schedule: Q04DX002 (ip), vehicle: saline with Tween-80 100 % of control | dose: 400.0 mg/kg/injection, schedule: Q04DX002 (ip), vehicle: saline with Tween-80 103 % of control

CC(C)(C)C(Br)CBr (stereo not given)
inactive: [4] 101 % of control | [5] 101 % of control | [6] 97 % of control

CN(Cc1cc(Cl)cc(Cl)c1O)C1CC2CCC1(C)C2(C)C (stereo not given)
inactive: [16] 96 % of control | [17] 103 % of control | [1] 90 % of control | [18] 92 % of control | [2] 88 % of control | [3] 103 % of control

CNC(=O)Nc1nc2ccc([N+](=O)[O-])cc2[nH]1
inactive: [12] 105 % of control | [19] 103 % of control | [13] 97 % of control

CCN1/C(=C/C=C2/SC(=S)N(CC(=O)O)C2=O)Oc2ccccc21
inactive: dose: 50.0 mg/kg/injection, schedule: Q01DX001 (ip), vehicle: saline 100 % of control | [12] 96 % of control | [19] 100 % of control | [13] 106 % of control

COc1cc(/C=N\NC(=O)CC#N)cc(OC)c1OC
inactive: [4] 87 % of control | [5] 87 % of control | [6] 94 % of control

O=C1C(Br)=CC(Br)=C/C1=N/Br
inactive: dose: 50.0 mg/kg/injection, schedule: Q04DX003 (ip), vehicle: Klucel (hydroxypropylcellulose) (HPC) 108 % of control | [7] 97 % of control | [8] 93 % of control

C[C@@H]1C[C@@]2(C)[C@@H](CC[C@@H]3[C@@H]2CC[C@]2(C)[C@@H](OC4CCCCO4)CC[C@@H]32)CC1=O (stereo not given in full)
inactive: dose: 100.0 mg/kg/injection, schedule: Q01DX001 (ip), vehicle: carboxymethylcellulose (CMC) 93 % of control | dose: 400.0 mg/kg/injection, schedule: Q01DX001 (ip), vehicle: carboxymethylcellulose (CMC) 88 % of control

NC(=O)C(Br)CBr (stereo not given)
inactive: [15] 98 % of control | dose: 50.0 mg/kg/injection, schedule: Q01DX009 (ip), vehicle: saline 95 % of control | [14] 101 % of control

CC(=O)NC(C)(SC(C)=O)C(=O)O (stereo not given)
inactive: [10] 94 % of control | [11] 95 % of control | dose: 400.0 mg/kg/injection, schedule: Q01DX001 (ip), vehicle: Klucel (hydroxypropylcellulose) (HPC) 94 % of control

Cc1ccc(NC(=O)Nc2ccccc2C(N)=O)c([N+](=O)[O-])c1
inactive: [7] 90 % of control | [8] 87 % of control | [9] 90 % of control

O=C(O)CCOc1ccccc1Cl
inactive: [5] 91 % of control | [18] 98 % of control | [6] 95 % of control | [20] 95 % of control | dose: 400.0 mg/kg/injection, schedule: Q01DX009 (ip), vehicle: saline with Tween-80 93 % of control | [21] 106 % of control

O=C1NC(c2ccccc2Cl)Nc2ccccc21 (stereo not given)
inactive: dose: 50.0 mg/kg/injection, schedule: Q01DX009 (ip), vehicle: Klucel (hydroxypropylcellulose) (HPC) 103 % of control | [1] 101 % of control | dose: 150.0 mg/kg/injection, schedule: Q01DX009 (ip), vehicle: Klucel (hydroxypropylcellulose) (HPC) 97 % of control

CCOc1ccccc1NC(=O)Nc1cccc(C(F)(F)F)c1
inactive: [18] 99 % of control | [20] 92 % of control | [21] 89 % of control

[Cl][Zn][Cl].[NH-]CCN1CC1.[NH-]CCN1CC1
inactive: dose: 10.0 mg/kg/injection, schedule: Q01DX009 (ip), vehicle: saline 108 % of control | dose: 20.0 mg/kg/injection, schedule: Q01DX009 (ip), vehicle: saline 111 % of control | dose: 20.0 mg/kg/injection, schedule: Q04DX003 (ip), vehicle: saline 104 % of control | dose: 40.0 mg/kg/injection, schedule: Q01DX009 (ip), vehicle: saline 93 % of control | dose: 40.0 mg/kg/injection, schedule: Q04DX003 (ip), vehicle: saline 102 % of control

Cc1cc(C(=O)O)c(C)o1
inactive: [1] 96 % of control | [2] 93 % of control

O=C(c1ccccc1)c1c2ccccc2c(-c2ccccc2)c2ccccc12
inactive: [1] 101 % of control | [7] 92 % of control | [2] 103 % of control | [8] 89 % of control | [3] 92 % of control | [9] 90 % of control

O=C(Nc1ccc(Nc2ccccc2)cc1)Nc1ccccc1Cl
inactive: [1] 90 % of control | [7] 95 % of control | [2] 90 % of control | [8] 92 % of control | [3] 92 % of control | [9] 90 % of control
